Values after ≈ are worked out from the molar mass of the structure shown. Active and inactive are the calls of the source. The calls are words filed in the database; no cut-off is given here.
Experiments:
Mus musculus = test: Toxicity in Plasmodium berghei infected mouse assessed as mortality at 640 mg/kg, sc administered 72 hrs after infection measured after 2 to 5 days; assay type: organism-based; design: dose 640 mg/kg, route subcutaneous; conditions: in vivo
Plasmodium berghei [1] = test: Antimalarial activity against Plasmodium berghei infected in mouse assessed as increase in mean survival days of host at 20 mg/kg, sc administered 72 hrs after infection relative to control; assay type: functional; conditions: route subcutaneous
Plasmodium berghei [2] = test: Antimalarial activity against Plasmodium berghei infected in mouse assessed as disease cure from parasite infection at 320 mg/kg, sc administered 72 hrs after infection; assay type: functional, organism-based; design: dose 320 mg/kg
Plasmodium berghei [3] = test: Antimalarial activity against Plasmodium berghei infected in mouse assessed as disease cure from parasite infection at 40 mg/kg, sc administered 72 hrs after infection; assay type: functional, organism-based; design: dose 40 mg/kg
Shigella sonnei = test: Antibacterial activity against Shigella sonnei C-10 by gradient plate test; assay type: functional
[4] = tested on: Mycobacterium tuberculosis; test: Antibacterial activity against Mycobacterium tuberculosis H37Ra by gradient plate test; assay type: functional
Plasmodium berghei [5] = test: Antimalarial activity against Plasmodium berghei infected in mouse assessed as disease cure from parasite infection at 640 mg/kg, sc administered 72 hrs after infection; assay type: functional, organism-based; design: dose 640 mg/kg
Pseudomonas aeruginosa = test: Antibacterial activity against Pseudomonas aeruginosa 28 by gradient plate test; assay type: functional
Plasmodium berghei [6] = test: Antimalarial activity against Plasmodium berghei infected in mouse assessed as disease cure from parasite infection at 160 mg/kg, sc administered 72 hrs after infection; assay type: functional, organism-based; design: dose 160 mg/kg
Plasmodium berghei [7] = test: Antimalarial activity against Plasmodium berghei infected in mouse assessed as increase in mean survival days of host at 40 mg/kg, sc administered 72 hrs after infection relative to control; assay type: functional; conditions: route subcutaneous
Enterococcus faecalis = test: Antibacterial activity against Streptococcus faecalis MGH-2 by gradient plate test; assay type: functional
Plasmodium berghei [8] = test: Antimalarial activity against Plasmodium berghei infected in mouse assessed as disease cure from parasite infection at 80 mg/kg, sc administered 72 hrs after infection; assay type: functional, organism-based; design: dose 80 mg/kg
Escherichia coli = test: Antibacterial activity against Escherichia coli Vogel by gradient plate test; assay type: functional
Staphylococcus aureus [9] = test: Antibacterial activity against drug-resistant Staphylococcus aureus S18713 by gradient plate test; assay type: functional
Staphylococcus aureus [10] = test: Antibacterial activity against Staphylococcus aureus UC-96 by gradient plate test; assay type: functional
Plasmodium gallinaceum [11] = test: Antimalarial activity against trophozoite-induced Plasmodium gallinaceum infected in white leghorn chicken assessed as increase in mean survival days of host at 1.25 mg/kg, sc administered 72 hrs after infection relative to control; assay type: functional; conditions: route subcutaneous
Plasmodium gallinaceum [12] = test: Antimalarial activity against trophozoite-induced Plasmodium gallinaceum infected in white leghorn chicken assessed as increase in mean survival days of host at 0.63 mg/kg, sc administered 72 hrs after infection relative to control; assay type: functional; conditions: route subcutaneous
Plasmodium gallinaceum [13] = test: Antimalarial activity against trophozoite-induced Plasmodium gallinaceum infected in white leghorn chicken assessed as disease cure from parasite infection at 160 mg/kg, sc administered 72 hrs after infection; assay type: functional, organism-based; design: dose 160 mg/kg
Plasmodium gallinaceum [14] = test: Antimalarial activity against trophozoite-induced Plasmodium gallinaceum infected in white leghorn chicken assessed as increase in mean survival days of host at 80 mg/kg, sc administered 72 hrs after infection relative to control; assay type: functional; conditions: route subcutaneous
Plasmodium gallinaceum [15] = test: Antimalarial activity against trophozoite-induced Plasmodium gallinaceum infected in white leghorn chicken assessed as increase in mean survival days of host at 2.5 mg/kg, sc administered 72 hrs after infection relative to control; assay type: functional; conditions: route subcutaneous
Plasmodium gallinaceum [16] = test: Antimalarial activity against trophozoite-induced Plasmodium gallinaceum infected in white leghorn chicken assessed as increase in mean survival days of host at 320 mg/kg, sc administered 72 hrs after infection relative to control; assay type: functional; conditions: route subcutaneous
Plasmodium gallinaceum [17] = test: Antimalarial activity against trophozoite-induced Plasmodium gallinaceum infected in white leghorn chicken assessed as increase in mean survival days of host at 20 mg/kg, sc administered 72 hrs after infection relative to control; assay type: functional; conditions: route subcutaneous
Plasmodium gallinaceum [18] = test: Antimalarial activity against trophozoite-induced Plasmodium gallinaceum infected in white leghorn chicken assessed as increase in mean survival days of host at 160 mg/kg, sc administered 72 hrs after infection relative to control; assay type: functional; conditions: route subcutaneous
Plasmodium berghei [19] = test: Antimalarial activity against Plasmodium berghei infected in mouse assessed as increase in mean survival days of host at 2.5 mg/kg, sc administered 72 hrs after infection relative to control; assay type: functional; conditions: route subcutaneous
Plasmodium gallinaceum [20] = test: Antimalarial activity against trophozoite-induced Plasmodium gallinaceum infected in white leghorn chicken assessed as increase in mean survival days of host at 10 mg/kg, sc administered 72 hrs after infection relative to control; assay type: functional; conditions: route subcutaneous
Plasmodium berghei [21] = test: Antimalarial activity against Plasmodium berghei infected in mouse assessed as increase in mean survival days of host at 5 mg/kg, sc administered 72 hrs after infection relative to control; assay type: functional; conditions: route subcutaneous
Plasmodium berghei [22] = test: Ratio of quinine hydrochloride SD90 to compound SD90 for trophozoite-induced Plasmodium berghei infected in mouse assessed as daily dose required to suppression of 90% parasite infection administered with diet for 6 days; assay type: functional
Plasmodium berghei [23] = test: Antimalarial activity against Plasmodium berghei infected in mouse assessed as increase in mean survival days of host at 1.25 mg/kg, sc administered 72 hrs after infection relative to control; assay type: functional; conditions: route subcutaneous
Plasmodium berghei [24] = test: Antimalarial activity against Plasmodium berghei infected in mouse assessed as increase in mean survival days of host at 10 mg/kg, sc administered 72 hrs after infection relative to control; assay type: functional; conditions: route subcutaneous
Plasmodium gallinaceum [25] = test: Antimalarial activity against trophozoite-induced Plasmodium gallinaceum infected in white leghorn chicken assessed as increase in mean survival days of host at 5 mg/kg, sc administered 72 hrs after infection relative to control; assay type: functional; conditions: route subcutaneous
Plasmodium gallinaceum [26] = test: Antimalarial activity against trophozoite-induced Plasmodium gallinaceum infected in white leghorn chicken assessed as increase in mean survival days of host at 40 mg/kg, sc administered 72 hrs after infection relative to control; assay type: functional; conditions: route subcutaneous
Plasmodium berghei [27] = test: Antimalarial activity against trophozoite-induced Plasmodium berghei infected in mouse assessed as daily dose required to suppression of 90% parasite infection administered with diet for 6 days; assay type: functional
Plasmodium gallinaceum [28] = test: Antimalarial activity against trophozoite-induced Plasmodium gallinaceum infected in white leghorn chicken assessed as disease cure from parasite infection at 320 mg/kg, sc administered 72 hrs after infection; assay type: functional, organism-based; design: dose 320 mg/kg
Plasmodium gallinaceum [29] = test: Antimalarial activity against sporozoite-induced Plasmodium gallinaceum infected in white leghorn chicken assessed as disease cure from parasite infection at 60 mg/kg, sc administered 72 hrs after infection; assay type: functional, organism-based; design: dose 60 mg/kg
Plasmodium gallinaceum [30] = test: Antimalarial activity against sporozoite-induced Plasmodium gallinaceum infected in white leghorn chicken assessed as increase in mean survival days of host at 15 mg/kg, sc administered 72 hrs after infection relative to control; assay type: functional; conditions: route subcutaneous
Plasmodium gallinaceum [31] = test: Antimalarial activity against sporozoite-induced Plasmodium gallinaceum infected in white leghorn chicken assessed as disease cure from parasite infection at 240 mg/kg, sc administered 72 hrs after infection; assay type: functional, organism-based; design: dose 240 mg/kg
Plasmodium gallinaceum [32] = test: Antimalarial activity against sporozoite-induced Plasmodium gallinaceum infected in white leghorn chicken assessed as disease cure from parasite infection at 120 mg/kg, sc administered 72 hrs after infection; assay type: functional, organism-based; design: dose 120 mg/kg
Plasmodium gallinaceum [33] = test: Antimalarial activity against sporozoite-induced Plasmodium gallinaceum infected in white leghorn chicken assessed as increase in mean survival days of host at 30 mg/kg, sc administered 72 hrs after infection relative to control; assay type: functional; conditions: route subcutaneous
Plasmodium gallinaceum [34] = test: Antimalarial activity against sporozoite-induced Plasmodium gallinaceum infected in white leghorn chicken assessed as disease cure from parasite infection at 30 mg/kg, sc administered 72 hrs after infection; assay type: functional, organism-based; design: dose 30 mg/kg
Plasmodium berghei [35] = test: Antimalarial activity against Plasmodium berghei infected in mouse assessed as increase in mean survival days of host at 160 mg/kg, sc administered 72 hrs after infection relative to control; assay type: functional; conditions: route subcutaneous
Plasmodium berghei [36] = test: Antimalarial activity against Plasmodium berghei infected in mouse assessed as increase in mean survival days of host at 80 mg/kg, sc administered 72 hrs after infection relative to control; assay type: functional; conditions: route subcutaneous
Plasmodium gallinaceum [37] = test: Antimalarial activity against sporozoite-induced Plasmodium gallinaceum infected in white leghorn chicken assessed as disease cure from parasite infection at 15 mg/kg, sc administered 72 hrs after infection; assay type: functional, organism-based; design: dose 15 mg/kg
Plasmodium gallinaceum [38] = test: Antimalarial activity against sporozoite-induced Plasmodium gallinaceum infected in white leghorn chicken assessed as disease cure from parasite infection at 480 mg/kg, sc administered 72 hrs after infection; assay type: functional, organism-based; design: dose 480 mg/kg

Row | Compound | Activity (Mus musculus) | MST (Plasmodium berghei [1]) [days] | Activity (Plasmodium berghei [2]) | Activity (Plasmodium berghei [3]) | MIC (Shigella sonnei) [µg/mL] | Activity (Plasmodium berghei [5]) | MIC (Pseudomonas aeruginosa) [µg/mL] | Activity (Plasmodium berghei [6]) | MST (Plasmodium berghei [7]) [days] | MIC (Enterococcus faecalis) [µg/mL] | Activity (Plasmodium berghei [8]) | MIC (Escherichia coli) [µg/mL] | MIC (Staphylococcus aureus [9]) [µg/mL] | MIC (Staphylococcus aureus [10]) [µg/mL] | MST (Plasmodium berghei [19]) [days] | MST (Plasmodium berghei [21]) [days] | MST (Plasmodium berghei [24]) [days] | other results
1 | Nc1nc(N)c2c(Cl)c(Sc3ccc(F)cc3)ccc2n1 | Toxic | 6.9 | Active | Active | < 0.25 | Active | > 25 | Active | 15.6 | < 0.25 | Active | < 0.25 | < 0.25 | < 0.25 | – | – | – | MIC [4]: 5 µg/mL (≈ 15.6 µM)
2 | Cc1ccccc1Sc1ccc2nc(N)nc(N)c2c1 | Toxic | 10.5 | Active | Active | 1 (≈ 3.54 µM) | Active | > 25 | Active | 17 | < 0.25 | Active | < 0.25 | < 0.25 | < 0.25 | 5.5 | 7.3 | 9.9 | MST (Plasmodium gallinaceum [11]): 0 days; MST (Plasmodium gallinaceum [12]): 0 days; Activity (Plasmodium gallinaceum [13]): Active; MST (Plasmodium gallinaceum [14]): 12 days; MST (Plasmodium gallinaceum [15]): 0 days; MST (Plasmodium gallinaceum [16]): 16 days; MST (Plasmodium gallinaceum [17]): 7.6 days; MST (Plasmodium gallinaceum [18]): 17 days; MST (Plasmodium gallinaceum [20]): 6.6 days; Ratio (Plasmodium berghei [22]): 18; MST (Plasmodium berghei [23]): 1.1 days; MST (Plasmodium gallinaceum [25]): 2.4 days; MST (Plasmodium gallinaceum [26]): 11 days; SD90 (Plasmodium berghei [27]): 4.1 mg/kg/day; Activity (Plasmodium gallinaceum [28]): Active
3 | Nc1nc(N)c2cc(Sc3c(F)c(F)cc(F)c3F)ccc2n1 | – | 2.7 | Active | – | 15 (≈ 44.1 µM) | Active | > 25 | Active | 6.1 | < 0.25 | Active | 2 (≈ 5.88 µM) | < 0.25 | < 0.25 | 0.3 | 0.3 | 0.5 | Activity (Plasmodium gallinaceum [29]): Active; MST (Plasmodium gallinaceum [30]): 1.7 days; Activity (Plasmodium gallinaceum [31]): Active; Activity (Plasmodium gallinaceum [32]): Active; MST (Plasmodium gallinaceum [33]): 2.7 days; Activity (Plasmodium gallinaceum [34]): Active; MST (Plasmodium berghei [35]): 14.9 days; MST (Plasmodium berghei [36]): 8.9 days; Activity (Plasmodium gallinaceum [37]): Active; Activity (Plasmodium gallinaceum [38]): Active
